# Results published in patent publication US10517926B2, “Oligopeptide having proinflammatory cytokine secretion-inhibiting activity” (Osaka University, priority 2015, dated 2019).
# What was measured:
# MG6 cells [1] = assay: Proinflammatory cytokine secretion inhibition, LPS-stimulated microglial cells (ELISA); type: cell-based, mouse; conditions: MG6 cells, peptide 50 or 100 μg/ml, LPS 2 ng/ml, 24 hours
# Procedure: (§1) MG6 cells (mouse-derived microglial cell line) were cultured in a DMEM medium (+4% FBS) containing MHP1 or MHP2 (final concentration: 50 or 100 μg/ml), and LPS (final concentration: 2 ng/ml) for 24 hours by a standard method. After culture, the concentrations of IL-6 and TNFα in the medium were measured by the ELISA method. In the Examples of the present application, the ELISA method was performed using a kit (Quantikine ELISA Mouse TNF-α or Quantikine ELISA Mouse IL-6, produced by R&D Systems). The results are shown in FIG. 1 (IL-6) and FIG. 2 (TNFα).
# The proinflammatory cytokine secretion-inhibiting effect was examined in the same as in Example 2, except that the final concentration of MHP1 was set to 100 μg/ml, and that RANKL full-length protein was used at a final concentration of 10 ng/ml or 100 ng/ml as the comparison target.
# RAW264.7 cells [2] = assay: Proinflammatory cytokine secretion inhibition, LPS-stimulated macrophage cells (ELISA); type: cell-based, mouse; conditions: MHP1 30, 50 or 100 μg/ml, LPS 2 ng/ml, 24 hours
# Procedure: RAW264.7 cells (mouse-derived macrophage cell line) were cultured in a DMEM medium (+4% FBS) containing MHP1 (final concentration: 30, 50, or 100 μg/ml) and LPS (final concentration: 2 ng/ml) for 24 hours by a standard method. After culture, the concentrations of IL-6 and TNFα in the medium were measured by the ELISA method. The results are shown in FIG. 3 (IL-6) and FIG. 4 (TNFα).
# [3] = tested on: neuron-glia mixed culture; assay: Neuronal cell death by LPS in neuron-glia mixed culture system (MAP2 staining); type: cell-based, mouse; conditions: B group; MHP1 50 μg/ml pretreatment, LPS 10 μg/ml, 5 days; FIG. 6
# Procedure: Neuronal tissue (a mixture of neurons and glial cells) was removed from a mouse fetus 21 days after fertilization (21st fetal day), and cultured in Neurobasal medium (+B-27, +5% HS) for 9 days. Then, the cells were divided into 3 groups (A to C groups), and subjected to the following treatments.
# The cells were cultured for 24 hours after the medium was changed to a medium (Neurobasal A/N2 supplement) containing MHP1 (final concentration: 50 μg/ml). Then, LPS (final concentration: 10 μg/ml) was added to the medium, and the cells were further cultured for 5 days. After culture, immunostaining was performed according to a general method using an antibody (M4403, produced by Sigma-Aldrich) against MAP2, which was a neuronal cell marker, as a primary antibody (primary antibody: 1/1000 dilution, and second antibody (A 11001, produced by Invitrogen): 1/1000 dilution). The staining images were observed, and the ratio of the area of the stained region (i.e., the region occupied by the survival neurons) to the culture dish area was calculated.
# RAW264.7 cells [4] = assay: Osteoclast-related mRNA expression (NFATc1, ACP5) by real-time RT-PCR; type: cell-based, mouse; conditions: MHP1 100 μg/ml, 3 days, FIG. 12A, 12B
# Procedure: It has recently been reported that the administration of RANKL protein to mice induces the activation of osteoclasts. Accordingly, the influence of the RANKL peptide on osteoclasts was examined. The specific examination procedures were as follows. MHP1 (final concentration: 100 μg/ml) or RANKL protein (final concentration: 10 ng/ml) was added to a medium (DMEM medium (+4% FBS)) in which RAW264.7 cells were cultured, and the cells were collected after 10 minutes and 3 days.
# For the samples collected after 10 minutes, nuclear proteins of the cells were extracted using the Nuclear Extract Kit (Active Motif), and the degree of NFκB (p65) activation was measured by the TransAM NFkB p65 Kit (Active Motif). On the other hand, for the samples collected after 3 days, the mRNA expression levels of NFATc1 and ACP5 were analyzed by real-time RT-PCR.
# MG6 cells [5] = assay: Stability of RANKL peptide: activity after storage in water; type: cell-based, mouse; conditions: 2 mg/ml in water, 4° C., 208 days
# Procedure: as §1
# MHP1 was dissolved in water to a concentration of 2 mg/ml, and stored at 4° C. for 208 days. Thereafter, the proinflammatory cytokine secretion-inhibiting effect of this MHP1 was examined in the same manner as in Example 2, except that the final concentration of MHP1 was set to 100 μg/ml.
# [6] = tested on: cerebral infarction model mice; assay: Necrosis inhibition by intravenous administration in cerebral infarction models; type: in vivo, mouse; conditions: 300 μG i.v. 4 hours after infarction, then 336 μg s.c. over 21 hours
# Procedure: A cerebral ischemic area was artificially developed in wild-type mice (C57BL6/J) using embolic suture. Specifically, nylon suture was inserted from the right external carotid artery into the intracranial internal carotid artery, and the right middle cerebral artery was temporarily occluded. The embolic suture was removed 40 minutes after the formation of the ischemic area, and the blood was reperfused. Four hours after the formation of the ischemic area, 2 μl of MHP1 solution (0.625 μg/2 μl, the solvent was artificial cerebrospinal fluid (aCSF)) or 2 μl of aCSF was administered by injection into the ventricle of the mice with a neurological severe score of 1 or 2. […] The area of the cresyl violet staining site was regarded as the cerebral infarct area (necrosis site), and the ratio of cerebral infarct area was determined by the following formula. […]
# Cerebral infarction models were produced in the same manner as in Example 10. […] Twenty-four hours and forty-eight hours after the production of the cerebral infarction models, neurological severity scores were measured. Furthermore, the mice were sacrificed 48 hours after the production of the cerebral infarction models, and the ratio of cerebral infarct area was determined in the same manner as in Example 10.
sequence,measurement,setting,value
LMVYVVKTSIKIPSSHNLMKGGSTKNWSGN (listed as Mus musculus) [MHP1],increase in the amount of IL-6 secretion by LPS,MG6 cells [1]; FIG. 1,suppressed
same,increase in the amount of TNFα secretion by LPS,MG6 cells [1]; FIG. 2,suppressed
same,increase in the amount of IL-6 secretion by LPS,RAW264.7 cells [2]; FIG. 3,suppressed
same,increase in the amount of TNFα secretion by LPS,RAW264.7 cells [2]; FIG. 4,suppressed
same,neuronal cell death by LPS,[3],suppressed
same,"expression of osteoclast-related mRNA (NFATc1, ACP5)",RAW264.7 cells [4],did not promote
same,stability,MG6 cells [5],high
same,proinflammatory cytokine secretion-inhibiting effect after long-term storage,"MG6 cells [5]; tested at 100 μg/ml on MG6 cells, FIG. 18",exhibited a proinflammatory cytokine secretion-inhibiting effect
same,symptoms of cerebral infarction (neurological severity scores),"[6]; 24 and 48 hours, FIG. 23",could be relieved
same,necrosis occurring after cerebral ischemia (ratio of cerebral infarct area),"[6]; 48 hours, FIG. 22",could be suppressed
